Reference: article PMC6138628, “Enhanced uptake of gH625 by blood brain barrier compared to liver in vivo: characterization of the mechanism by an in vitro model and implications for delivery” (Scientific Reports, 2018)
Starred links: 1 amine or outer side, 2 acyl side, 3 side chain; linkers in the order of their positions; H or OH if unused. Non-standard residues stand in square brackets, D forms with d. Residues, ends and D or L forms follow the SMILES beside them. X1 = O=C([C@H](Cc1c[nH]cn1)N(c1ccc([N+](=O)[O-])c2nonc12)[*:1])[*:2]

Experiments:
brain / BBB = assay: In vivo brain uptake, fluorescence microscopy of rat brain; design: species or system male Wistar rats
Protocol: (§1) In vivo studies were performed in male Wistar rats housed under a 12 hours light-dark cycle with free access to food and water. The animals were allocated in five groups, each consisting of three rats. Three animal groups received a single i.v. administration of NBD-gH625 at a concentration of 10 µg, 20 µg, and 40 µg/100 g bw, respectively. Control group received vehicle while another group received gH-625 (40 µg/100 g bw). Both NBD-gH625 and gH625 were dissolved in phosphate-buffered saline. After 3.5 hours from the i.v. administration, the animals were anesthetized with Zoletil® (40 mg/100 g) and euthanized by decapitation. This study was carried out in strict accordance with recommendations in the European Guide for the Care and Use of Laboratory Animals. Every effort was made to minimize animal pain and suffering. All animal protocols were approved by the Committee on the Ethics of Animal Experiments of the University of Napoli Federico II (Italy) and the Italian Minister of Health. (Protocol number 2012/000180).
The ex-vivo fluorescence microscopy analysis was performed to evaluate the distribution of NBD-gH625 on both sides of the BBB. In order to evaluate if there is a linear relationship between slides fluorescence integrated density and the amount of the peptide, a calibration curve was obtained. In particular, increasing amounts of NBD-gH625 (0–30 µM) were spotted on microscope slides and images at 515 nm were acquired (See the Results section) and analysed as described below. Brains were removed from animals, sectioned sagittally in thick slices, washed in PBS, mounted on coverslips, stained with DAPI (4′–6 Diamidino-2-Phenylindole, Dilactate) (Invitrogen, Carlsbad, CA, USA) and analysed under Axioskop fluorescence microscope (Zeiss). Images, at least 10 field of view (800 × 700 μm each) for each experimental class, were acquired using an AxioCam MRc5 (Zeiss) with DAPI filter (λex 350 nm; λem 461 nm) and a fluorescein isothiocyanate filter (λex 488 nm; λem 515 nm).
To evaluate the distribution of NBD-gH625 on both sides of the BBB, we estimated the fluorescence inside the blood vessels (without discriminating between the amount present in the blood and that present in the endothelial cells) and outside the blood vessels in 10 images for each experimental class. In detail, to assess the NBD-gH625 that reached without crossing the BBB, we selected blood vessels as the region of interest (ROI) (inbound) and evaluated the fluorescence intensity; then, on the non-zero thresholded images, an inversion of selected ROI was carried out to obtain the complementary ROI to calculate the amounts of NBD-gH625 which crossed the BBB (outbound).
The morphology of blood vessels was easily identified and outlined; the images were calibrated by ImageJ Rodbard function; integrated density values were calculated within the outlines exclusively, to be considered as inside fluorescence. Then, the thresholded and outlined images, to exclude both blood vessels and background values, were used to calculate the integrated density as outside fluorescence.
(§2) To evaluate the effect of concentration on the systemic delivery of NBD-gH625, a fluorescence microscopy analysis was performed as previously reported.
Briefly, livers and brains were isolated and fixed for 24 hours in Bouin’s fixative (71% picric acid, 5% acetic acid, 24% formaldehyde) and embedded in paraffin wax (Carlo Erba, Milan, Italy). Tissue sections (10 μm of thickness) were incubated in 0.1% Sudan Black B dissolved in 70% ethanol for 20 minutes to reduce the tissues autofluorescence. The excess of Sudan Black B was removed by washing with Tris-buffered saline containing 0.02% Tween 20[30],[31]. Sections were stained with DAPI to counterstain nuclei, then mounted with a coverslip in glycerol/phosphate-buffered saline (1:1) and acquired using an AxioCam MRc5 with DAPI filter (λex 350 nm; λem 461 nm) and a fluorescein isothiocyanate filter (λex 488 nm; λem 515 nm). […]

liver = assay: In vivo liver uptake, fluorescence microscopy of rat liver slices; design: species or system male Wistar rats; details: single i.v. 10, 20, 40 µg/100 g bw, 3.5 hours
Protocol: as §1, with “Every effort was made to minimize animal pain and suffering. All animal protocols were approved by the Committee on the Ethics of Animal Experiments of the University of Napoli Federico II (Italy) and the Italian Minister of Health. (Protocol number 2012/000180).” left out
as §2
Briefly, livers and brains were isolated and fixed for 24 hours in Bouin’s fixative (71% picric acid, 5% acetic acid, 24% formaldehyde) and embedded in paraffin wax (Carlo Erba, Milan, Italy). […] All images were then analysed using Fiji 1.50 software to determine the mean fluorescence and the integrated density, defined as the product of the mean fluorescence per the region of interest (μm^2)[32]. The percentage of delivered vs administered NBD-gH625 was calculated.

[1] = single i.v., 3.5 hours after administration, ex vivo brain slices, 515 nm

## CC[C@H](C)[C@H](NC(=O)[C@H](CC(C)C)NC(=O)[C@H](C)NC(=O)[C@H](CC(N)=O)NC(=O)[C@H](Cc1ccc(O)cc1)NC(=O)[C@H](Cc1c[nH]cn1)NC(=O)[C@H](C)NC(=O)[C@H](Cc1c[nH]c2ccccc12)NC(=O)[C@H](CCCNC(=N)N)NC(=O)[C@@H](NC(=O)[C@H](CC(C)C)NC(=O)[C@@H](NC(=O)[C@H](CO)NC(=O)[C@H](C)NC(=O)[C@H](CC(C)C)NC(=O)CNC(=O)[C@H](Cc1c[nH]cn1)Nc1ccc([N+](=O)[O-])c2nonc12)[C@@H](C)O)[C@@H](C)O)C(=O)N[C@@H](CCCNC(=N)N)C(=O)N[C@@H](C)C(=O)N[C@@H](Cc1ccccc1)C(N)=O [NBD-gH625] (H-[X1]GLASTLTRWAHYNALIRAF-NH2)
Brain / BBB; single i.v. 40 µg/100 g bw, 3.5 hours
  Integrated density of fluorescence on brain slices: comparable to the control
Brain / BBB; single i.v. 10, 20, 40 µg/100 g bw, 3.5 hours
  Integrated density of fluorescence on brain slices, dependence on dose: lower peptide concentrations are able to improve the reaching of the brain more compared to higher concentrations
Brain / BBB; single i.v. 10, 20, 40 µg/100 g bw, 3.5 hours, integrated density calibrated with known amounts
  Percentage of peptide delivered in brain vs administered, dependence on dose: lower doses produced higher percentages of delivered peptide
Brain / BBB; [1]
  Peptide crossing the BBB (fluorescence outside blood vessels, brain parenchyma): crosses the BBB
  Peptide delivered to the BBB (fluorescence inside blood brain vessels, integrated density): reaches the BBB of treated animals
liver
  Integrated density of fluorescence on liver slices, dependence on dose: lowest dose of NBD-gH625 has higher effect
liver; integrated density calibrated with known amounts
  Percentage of peptide delivered in liver vs administered, dependence on dose: lower doses produced higher percentages of delivered peptide
